{"source": "paper PMC4958244", "about": "(mBio, 2016)", "molecules": {"B1": {"name": "N-terminal part of Als3p from Candida albicans (N-Als3p) (domain or fragment)", "chain": "KTITGVFNSFNSLTWSNAATYNYKGPGTPTWNAVLGWSLDGTSASPGDTFTLNMPCVFKFTTSQTSVDLTAHGVKYATCQFQAGEEFMTFSTLTCTVSNTLTPSIKALGTVTLPLAFNVGGTGSSVDLEDSKCFTAGTNTVTFNDGGKKISINVDFERSNVDPKGYLTDSRVIPSLNKVSTLFVAPQCANGYTSGTMGFANTYGDVQIDCSNIHVGITKGLNDWNYPVSSESFSYTKTCSSNGIFITYKNVPAGYRPFVDAYISATDVNSYTLSYANEYTCAGGYWQRAPFTLRWTGYRNSDAGSNGIVIVATTRTVTDSTTAVTTLPFDPNRDKTKTIEILKPIPTTTITTSYVGVTTSYSTKTAPIGETATVIVDIPYHTTTTVTSKWTGTITSTTTHTNPTDSIDTVIVQVP", "modifications": "Secreted from S. cerevisiae, C-terminal His tag omitted. The strain of the allele is not given; the SC5314 reference entry is used. Limits 18-432 are printed in Text S1."}}, "key": {"[1]": {"target": "T1, N-Als3p (Candida albicans, UniProt Q59L12)", "T1 construct": "gene ALS3; N-terminal part (Ig-like adhesin domain); recombinant, purified from S. cerevisiae or E. coli as previously described", "assay": "CFG glycan array v5.[…]", "format": "binding", "conditions": "glycan printed on glass slide, N-Als3p NT-647 labelled"}, "[2]": {"target": "T1, N-Als3p", "assay": "SPR, immobilised BSA-GlcNAc", "format": "binding", "conditions": "GlcNAc shown as BSA glycoconjugate on CM5 chip, 25°C"}, "[3]": {"target": "T2, N-Epa1p (Nakaseomyces glabratus, UniProt Q6VBJ0)", "T2 construct": "gene EPA1; N-terminal PA14-like lectin domain; recombinant, purified from S. cerevisiae or E. coli as previously described", "T2 sequence (Q6VBJ0 entry or part of it)": "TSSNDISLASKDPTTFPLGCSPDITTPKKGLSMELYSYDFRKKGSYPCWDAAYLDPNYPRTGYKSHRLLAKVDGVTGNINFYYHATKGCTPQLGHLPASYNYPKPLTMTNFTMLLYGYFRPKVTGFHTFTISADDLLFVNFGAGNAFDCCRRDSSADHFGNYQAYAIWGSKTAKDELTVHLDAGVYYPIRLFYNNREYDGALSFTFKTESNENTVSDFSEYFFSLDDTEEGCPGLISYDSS", "assay": "SPR inhibition of binding to immobilised mucin", "conditions": "competition with porcine stomach mucin, lactose 6 µM to 1.5 mM, 25°C"}, "[4]": {"target": "Mucin, partially purified from porcine stomach (porcine)", "assay": "SPR; Biacore 3000, 25°C; FN, mucin or laminin covalently immobilised on a CM5 chip by amine coupling, adhesin domain flowed over; dissociation constants in the equilibrium state"}, "[5]": {"target": "Laminin, from human placenta (human)", "assay": "SPR; Biacore 3000, 25°C; FN, mucin or laminin covalently immobilised on a CM5 chip by amine coupling, adhesin domain flowed over; dissociation constants in the equilibrium state"}, "[6]": {"target": "Fibronectin (FN) (UniProt P02751 32-2477)", "sequence (P02751 32-2477)": "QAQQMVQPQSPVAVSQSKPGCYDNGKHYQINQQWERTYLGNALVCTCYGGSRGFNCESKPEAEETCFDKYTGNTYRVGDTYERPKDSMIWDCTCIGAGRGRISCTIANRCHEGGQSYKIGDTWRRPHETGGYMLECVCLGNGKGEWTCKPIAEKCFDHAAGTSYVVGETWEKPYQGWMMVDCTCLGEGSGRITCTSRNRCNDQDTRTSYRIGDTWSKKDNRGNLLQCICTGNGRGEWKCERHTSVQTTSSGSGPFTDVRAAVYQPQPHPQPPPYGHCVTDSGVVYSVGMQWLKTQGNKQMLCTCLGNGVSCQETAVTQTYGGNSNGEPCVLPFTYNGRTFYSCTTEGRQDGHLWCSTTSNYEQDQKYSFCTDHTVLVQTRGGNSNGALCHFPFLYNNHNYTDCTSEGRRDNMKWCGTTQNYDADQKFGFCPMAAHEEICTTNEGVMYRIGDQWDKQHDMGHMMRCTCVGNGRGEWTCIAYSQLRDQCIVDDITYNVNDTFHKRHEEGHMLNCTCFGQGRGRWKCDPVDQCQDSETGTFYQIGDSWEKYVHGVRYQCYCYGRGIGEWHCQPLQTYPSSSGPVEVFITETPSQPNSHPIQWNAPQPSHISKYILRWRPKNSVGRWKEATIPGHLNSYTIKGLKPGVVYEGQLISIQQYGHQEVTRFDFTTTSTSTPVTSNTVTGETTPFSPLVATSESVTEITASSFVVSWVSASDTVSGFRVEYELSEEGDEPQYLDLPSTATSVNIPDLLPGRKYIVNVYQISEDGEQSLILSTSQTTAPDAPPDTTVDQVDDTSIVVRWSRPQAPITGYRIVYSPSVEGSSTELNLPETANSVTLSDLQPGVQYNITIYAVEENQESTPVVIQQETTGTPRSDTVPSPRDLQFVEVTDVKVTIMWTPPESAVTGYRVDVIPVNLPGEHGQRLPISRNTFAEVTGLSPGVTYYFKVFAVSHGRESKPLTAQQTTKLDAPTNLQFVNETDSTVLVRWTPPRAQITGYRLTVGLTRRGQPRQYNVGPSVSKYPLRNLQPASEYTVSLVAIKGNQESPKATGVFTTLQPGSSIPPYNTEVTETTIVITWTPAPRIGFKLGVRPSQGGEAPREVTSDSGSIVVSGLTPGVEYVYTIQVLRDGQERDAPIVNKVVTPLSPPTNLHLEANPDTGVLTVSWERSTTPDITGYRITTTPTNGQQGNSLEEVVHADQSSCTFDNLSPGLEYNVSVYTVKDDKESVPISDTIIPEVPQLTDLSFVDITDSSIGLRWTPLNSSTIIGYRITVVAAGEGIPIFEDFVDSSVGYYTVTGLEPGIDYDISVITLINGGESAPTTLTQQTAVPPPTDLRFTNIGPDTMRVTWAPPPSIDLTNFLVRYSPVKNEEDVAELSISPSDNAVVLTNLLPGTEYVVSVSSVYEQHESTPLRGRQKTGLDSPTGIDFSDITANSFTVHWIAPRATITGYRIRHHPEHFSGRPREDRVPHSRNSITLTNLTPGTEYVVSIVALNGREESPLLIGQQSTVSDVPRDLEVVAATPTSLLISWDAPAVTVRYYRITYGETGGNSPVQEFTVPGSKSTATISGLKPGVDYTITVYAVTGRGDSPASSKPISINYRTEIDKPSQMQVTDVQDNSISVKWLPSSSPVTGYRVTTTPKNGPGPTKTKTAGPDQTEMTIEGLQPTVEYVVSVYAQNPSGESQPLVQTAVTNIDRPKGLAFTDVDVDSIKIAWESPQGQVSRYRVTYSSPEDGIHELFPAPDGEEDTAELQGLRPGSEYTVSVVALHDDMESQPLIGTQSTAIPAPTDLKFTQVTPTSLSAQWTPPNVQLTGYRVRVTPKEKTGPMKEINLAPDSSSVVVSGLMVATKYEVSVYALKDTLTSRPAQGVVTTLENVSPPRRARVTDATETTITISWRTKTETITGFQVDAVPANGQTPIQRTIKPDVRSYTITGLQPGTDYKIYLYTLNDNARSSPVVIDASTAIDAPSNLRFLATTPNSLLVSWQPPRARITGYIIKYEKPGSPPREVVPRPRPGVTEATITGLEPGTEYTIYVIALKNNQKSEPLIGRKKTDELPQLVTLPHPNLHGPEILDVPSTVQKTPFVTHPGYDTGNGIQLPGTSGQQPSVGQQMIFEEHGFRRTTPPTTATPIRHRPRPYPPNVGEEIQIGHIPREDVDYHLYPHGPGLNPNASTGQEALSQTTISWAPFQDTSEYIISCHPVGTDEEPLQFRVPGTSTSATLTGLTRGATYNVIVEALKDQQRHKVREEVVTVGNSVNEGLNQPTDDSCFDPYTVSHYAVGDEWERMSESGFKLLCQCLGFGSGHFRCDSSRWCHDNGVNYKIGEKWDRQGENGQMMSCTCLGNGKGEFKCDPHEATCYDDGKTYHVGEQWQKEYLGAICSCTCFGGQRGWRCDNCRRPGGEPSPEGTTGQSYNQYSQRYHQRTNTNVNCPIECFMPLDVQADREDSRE", "assay": "SPR; Biacore 3000, 25°C; FN, mucin or laminin covalently immobilised on a CM5 chip by amine coupling, adhesin domain flowed over; dissociation constants in the equilibrium state", "conditions": "both partners purified"}}, "data": [{"molecule": "CC(=O)N[C@H]1[C@H](O[C@H]2[C@@H](O)[C@@H](CO)OC(O)[C@@H]2O)O[C@H](CO)[C@H](O)[C@@H]1O[C@@H]1O[C@H](CO)[C@H](O)[C@H](O)[C@H]1O[C@@H]1O[C@@H](C)[C@@H](O)[C@@H](O)[C@@H]1O", "note": "(some centres unmarked) [Fucα-1,2-Galβ-1,3-GalNAcβ-1,3-Gal]", "values": [{"measurement": "CFG glycan array v5.0", "setting": "[1]; 200 µg/ml", "result": "GlcNAcβ-1,3GalNAc and Fucα-1,2-Galβ-1,3-GalNAcβ-1,3-Gal were also recognized"}]}, {"molecule": "CC(=O)N[C@H]1C(O)O[C@H](CO)[C@@H](O)[C@@H]1O", "note": "(some centres unmarked) [GlcNAc]", "values": [{"measurement": "SPR, immobilised BSA-GlcNAc", "setting": "[2]", "result": "SPR experiments confirmed the binding of N-Als3p to GlcNAc"}]}, {"molecule": "CC(=O)N[C@H]1[C@H](O[C@H]2[C@@H](O)[C@@H](CO)OC(O)[C@@H]2NC(C)=O)O[C@H](CO)[C@@H](O)[C@@H]1O", "note": "(some centres unmarked) [GlcNAcβ-1,3GalNAc]", "values": [{"measurement": "CFG glycan array v5.0", "setting": "[1]; 200 µg/ml", "result": "GlcNAcβ-1,3GalNAc and Fucα-1,2-Galβ-1,3-GalNAcβ-1,3-Gal were also recognized"}]}, {"molecule": "CC(=O)N[C@H]1C(O)O[C@H](CO)[C@H](O)[C@@H]1O[C@@H]1O[C@H](CO)[C@H](O)[C@H](O)[C@H]1O", "note": "(some centres unmarked) [T antigen]", "values": [{"measurement": "CFG glycan array v5.0", "setting": "[1]; 200 and 20 µg/ml", "result": "N-Als3p bound also to the T antigen"}]}, {"molecule": "OC[C@H]1O[C@@H](O[C@H]2[C@H](O)[C@@H](O)C(O)O[C@@H]2CO)[C@H](O)[C@@H](O)[C@H]1O", "note": "(some centres unmarked) [lactose]", "values": [{"measurement": "SPR inhibition of binding to immobilised mucin", "setting": "[3]", "result": "binding of N-Epa1p to mucin could be blocked by lactose in a concentration-dependent manner"}]}, {"molecule": "N-terminal domain of Epa1p from Candida glabrata (N-Epa1p) (domain or fragment)", "values": [{"measurement": "Kd", "setting": "[4]", "result": 4.67, "unit": "µM"}]}, {"molecule": "N-terminal part of Als3p from Candida albicans (N-Als3p) (domain or fragment)", "values": [{"measurement": "Kd", "setting": "[5]", "result": 410, "unit": "µM"}]}, {"molecule": "B1", "values": [{"measurement": "Kd", "setting": "[6]", "result": "10 ± 1", "unit": "µM"}]}]}
